# Molecular target: T1, FAD-GO from Rhizobium sp. GIN611 (Rhizobium sp. GIN611, UniProt G9ILI7)
# T1 construct: recombinant, expressed in E. coli Rosetta-gami 2 (DE3, pLysS)
# T1 sequence (G9ILI7 1-561): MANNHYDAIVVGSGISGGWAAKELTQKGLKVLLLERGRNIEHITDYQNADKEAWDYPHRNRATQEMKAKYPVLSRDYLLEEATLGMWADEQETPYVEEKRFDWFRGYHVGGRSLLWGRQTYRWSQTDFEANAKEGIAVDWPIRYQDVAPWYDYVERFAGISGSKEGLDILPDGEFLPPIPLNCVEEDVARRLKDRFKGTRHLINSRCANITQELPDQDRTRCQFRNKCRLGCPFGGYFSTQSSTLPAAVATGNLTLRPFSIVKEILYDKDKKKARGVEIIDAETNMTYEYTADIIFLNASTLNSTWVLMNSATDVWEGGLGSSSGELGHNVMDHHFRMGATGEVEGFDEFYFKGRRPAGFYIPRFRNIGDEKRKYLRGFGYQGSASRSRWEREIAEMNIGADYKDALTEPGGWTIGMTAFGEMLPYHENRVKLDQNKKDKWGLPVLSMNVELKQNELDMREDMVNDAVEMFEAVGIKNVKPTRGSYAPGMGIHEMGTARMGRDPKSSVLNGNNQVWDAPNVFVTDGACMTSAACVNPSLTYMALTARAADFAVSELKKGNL
# Assay: HPLC of oxidation and deglycosylation products
# Type: biochemical
# Settings: C3-OH of glucose oxidised; FAD enzyme, O2
# Excerpt: HPLC of oxidation and deglycosylation products on FAD-GO from Rhizobium sp.
structure (smiles),measurement,value
"CC(C)=CCC[C@](C)(O[C@@H]1O[C@H](CO)[C@@H](O)[C@H](O)[C@H]1O)[C@H]1CC[C@]2(C)[C@@H]1[C@H](O)C[C@@H]1[C@@]3(C)CC[C@H](O)C(C)(C)[C@@H]3CC[C@]12C [CK, Compound K]",HPLC of oxidation and deglycosylation products,"HPLC chromatogram of enzyme reactions using wild type, H493F mutant or H493A mutant enzyme"
